This is an account of results in ChEMBL document CHEMBL3124838, “Discovery of 6-aryl-azabenzimidazoles that inhibit the TBK1/IKK-ε kinases” (Bioorg Med Chem Lett, 2014).

In assay [1] the target is Insulin-like growth factor 1 receptor (Homo sapiens) (UniProt P08069). The experiment in a line: Inhibition of human IGF-1R assessed as residual activity at 1 uM relative to control.
For assay [2], the target named is T1, Tyrosine-protein kinase JAK3 (Homo sapiens) (UniProt P52333).
T1 sequence (whole entry): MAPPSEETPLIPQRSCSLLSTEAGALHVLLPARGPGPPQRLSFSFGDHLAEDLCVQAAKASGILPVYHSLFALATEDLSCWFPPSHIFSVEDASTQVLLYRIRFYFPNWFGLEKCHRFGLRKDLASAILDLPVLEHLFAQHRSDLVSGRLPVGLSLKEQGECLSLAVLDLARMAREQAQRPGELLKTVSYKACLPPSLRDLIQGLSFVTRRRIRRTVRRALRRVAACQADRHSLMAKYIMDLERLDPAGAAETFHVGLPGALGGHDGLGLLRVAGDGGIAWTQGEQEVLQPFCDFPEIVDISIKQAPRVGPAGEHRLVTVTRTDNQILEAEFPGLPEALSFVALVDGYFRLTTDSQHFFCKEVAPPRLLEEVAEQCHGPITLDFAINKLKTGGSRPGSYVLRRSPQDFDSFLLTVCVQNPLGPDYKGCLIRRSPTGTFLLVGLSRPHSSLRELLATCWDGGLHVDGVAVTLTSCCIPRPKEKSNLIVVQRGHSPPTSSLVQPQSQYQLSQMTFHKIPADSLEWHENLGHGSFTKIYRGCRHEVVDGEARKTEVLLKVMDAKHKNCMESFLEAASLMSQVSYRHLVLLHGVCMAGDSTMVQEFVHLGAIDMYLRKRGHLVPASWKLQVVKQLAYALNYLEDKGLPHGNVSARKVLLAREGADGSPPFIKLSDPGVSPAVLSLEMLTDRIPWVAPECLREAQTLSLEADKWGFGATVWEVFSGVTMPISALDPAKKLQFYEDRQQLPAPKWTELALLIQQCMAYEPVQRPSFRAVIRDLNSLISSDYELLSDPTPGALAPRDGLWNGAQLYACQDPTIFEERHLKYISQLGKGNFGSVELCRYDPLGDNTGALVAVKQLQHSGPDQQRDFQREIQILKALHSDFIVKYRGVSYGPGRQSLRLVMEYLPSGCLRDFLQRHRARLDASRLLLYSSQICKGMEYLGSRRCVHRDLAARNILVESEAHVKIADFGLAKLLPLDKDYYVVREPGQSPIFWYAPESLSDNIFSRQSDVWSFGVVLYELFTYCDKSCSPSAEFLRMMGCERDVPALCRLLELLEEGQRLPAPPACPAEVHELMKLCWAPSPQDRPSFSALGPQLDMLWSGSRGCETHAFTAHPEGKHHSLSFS
The assay can be described thus: Inhibition of human JAK3 assessed as residual activity at 1 uM relative to control.

Assay [3] concerns the target T2, Protein kinase C epsilon type (Homo sapiens) (UniProt Q02156).
T2 sequence (whole entry): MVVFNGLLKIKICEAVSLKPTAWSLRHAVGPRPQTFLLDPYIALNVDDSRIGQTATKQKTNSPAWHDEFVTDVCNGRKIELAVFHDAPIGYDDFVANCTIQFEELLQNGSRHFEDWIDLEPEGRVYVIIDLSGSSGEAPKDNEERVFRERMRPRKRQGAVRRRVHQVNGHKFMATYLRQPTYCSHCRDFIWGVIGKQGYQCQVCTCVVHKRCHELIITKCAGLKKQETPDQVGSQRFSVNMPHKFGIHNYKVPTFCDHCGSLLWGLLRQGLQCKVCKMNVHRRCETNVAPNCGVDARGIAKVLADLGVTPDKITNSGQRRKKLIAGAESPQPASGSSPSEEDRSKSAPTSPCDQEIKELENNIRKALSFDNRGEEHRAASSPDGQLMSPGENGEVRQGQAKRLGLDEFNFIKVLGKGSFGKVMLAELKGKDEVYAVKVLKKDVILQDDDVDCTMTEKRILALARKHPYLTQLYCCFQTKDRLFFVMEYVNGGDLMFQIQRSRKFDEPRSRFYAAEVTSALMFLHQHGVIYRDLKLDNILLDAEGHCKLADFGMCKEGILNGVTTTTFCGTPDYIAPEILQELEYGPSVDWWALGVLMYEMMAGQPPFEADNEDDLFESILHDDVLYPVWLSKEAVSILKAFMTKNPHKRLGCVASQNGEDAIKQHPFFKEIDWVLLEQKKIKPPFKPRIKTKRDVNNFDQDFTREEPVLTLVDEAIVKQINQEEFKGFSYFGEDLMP
The assay can be described thus: Inhibition of human PKC-epsilon assessed as residual activity at 1 uM relative to control.

Assay [4] deals with Cyclin-dependent kinase 1/cyclin B1 (Homo sapiens) (UniProt P06493+P14635). The assay can be described thus: Inhibition of human CDK1/cyclin B assessed as residual activity at 1 uM relative to control. The assay is classed as protein-complex assay.
For assay [5], the target named is PI3-kinase p110-alpha/p85-alpha (Homo sapiens) (UniProt P27986+P42336). The assay can be described thus: Inhibition of human PI3K p110alpha/p85alpha assessed as residual activity at 1 uM relative to control. Type of assay: protein-complex assay.
Assay [6] has as its target Tyrosine-protein kinase Fes/Fps (Homo sapiens) (UniProt P07332). The experiment in a line: Inhibition of human FES assessed as residual activity at 1 uM relative to control.

Chain of Insulin-like growth factor 1 receptor (Homo sapiens) (P08069 31-736 limits assumed): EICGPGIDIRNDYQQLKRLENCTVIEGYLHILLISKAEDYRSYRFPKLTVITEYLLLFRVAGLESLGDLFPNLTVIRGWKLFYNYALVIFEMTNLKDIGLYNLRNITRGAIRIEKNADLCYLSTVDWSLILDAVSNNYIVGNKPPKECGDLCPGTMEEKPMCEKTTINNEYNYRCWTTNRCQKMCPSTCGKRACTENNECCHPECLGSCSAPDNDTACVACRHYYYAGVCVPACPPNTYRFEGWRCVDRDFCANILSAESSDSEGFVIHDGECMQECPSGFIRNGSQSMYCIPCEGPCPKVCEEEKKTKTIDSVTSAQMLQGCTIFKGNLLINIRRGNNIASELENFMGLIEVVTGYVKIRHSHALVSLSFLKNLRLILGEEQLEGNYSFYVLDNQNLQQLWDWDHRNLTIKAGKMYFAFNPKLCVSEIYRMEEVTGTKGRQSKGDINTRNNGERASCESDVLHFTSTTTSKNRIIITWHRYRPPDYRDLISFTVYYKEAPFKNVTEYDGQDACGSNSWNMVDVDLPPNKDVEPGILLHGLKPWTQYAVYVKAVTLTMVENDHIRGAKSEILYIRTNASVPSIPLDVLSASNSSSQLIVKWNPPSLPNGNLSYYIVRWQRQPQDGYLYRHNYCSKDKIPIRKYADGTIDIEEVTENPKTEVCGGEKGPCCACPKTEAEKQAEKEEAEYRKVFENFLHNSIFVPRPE
Chain of Insulin-like growth factor 1 receptor (Homo sapiens) (P08069 741-1367 limits assumed): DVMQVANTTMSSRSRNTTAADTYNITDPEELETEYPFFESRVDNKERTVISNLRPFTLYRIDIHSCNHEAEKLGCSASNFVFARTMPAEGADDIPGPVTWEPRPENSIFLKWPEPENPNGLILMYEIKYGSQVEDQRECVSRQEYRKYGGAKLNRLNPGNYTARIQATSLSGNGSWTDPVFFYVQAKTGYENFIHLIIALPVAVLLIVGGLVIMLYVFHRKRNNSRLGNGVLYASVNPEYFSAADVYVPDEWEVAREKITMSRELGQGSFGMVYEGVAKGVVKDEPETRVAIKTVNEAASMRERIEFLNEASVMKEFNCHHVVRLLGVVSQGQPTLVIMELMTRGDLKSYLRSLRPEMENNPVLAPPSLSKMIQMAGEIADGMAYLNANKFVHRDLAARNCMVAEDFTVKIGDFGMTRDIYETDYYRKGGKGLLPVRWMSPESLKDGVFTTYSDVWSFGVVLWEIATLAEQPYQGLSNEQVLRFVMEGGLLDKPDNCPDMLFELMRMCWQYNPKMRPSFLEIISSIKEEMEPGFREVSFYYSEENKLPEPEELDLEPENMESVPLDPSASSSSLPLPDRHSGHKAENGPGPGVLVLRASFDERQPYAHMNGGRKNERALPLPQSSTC
Chain of Cyclin-dependent kinase 1/cyclin B1 (Homo sapiens) (P06493 whole entry, looked up): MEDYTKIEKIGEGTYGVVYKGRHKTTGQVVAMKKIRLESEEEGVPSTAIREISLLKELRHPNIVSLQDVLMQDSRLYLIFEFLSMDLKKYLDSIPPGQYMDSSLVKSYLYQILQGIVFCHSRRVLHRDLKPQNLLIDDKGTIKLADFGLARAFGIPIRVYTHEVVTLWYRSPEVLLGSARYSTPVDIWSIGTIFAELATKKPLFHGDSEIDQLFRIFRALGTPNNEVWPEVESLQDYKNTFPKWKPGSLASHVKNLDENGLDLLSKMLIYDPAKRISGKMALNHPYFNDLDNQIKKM
Chain of Cyclin-dependent kinase 1/cyclin B1 (Homo sapiens) (P14635 whole entry, looked up): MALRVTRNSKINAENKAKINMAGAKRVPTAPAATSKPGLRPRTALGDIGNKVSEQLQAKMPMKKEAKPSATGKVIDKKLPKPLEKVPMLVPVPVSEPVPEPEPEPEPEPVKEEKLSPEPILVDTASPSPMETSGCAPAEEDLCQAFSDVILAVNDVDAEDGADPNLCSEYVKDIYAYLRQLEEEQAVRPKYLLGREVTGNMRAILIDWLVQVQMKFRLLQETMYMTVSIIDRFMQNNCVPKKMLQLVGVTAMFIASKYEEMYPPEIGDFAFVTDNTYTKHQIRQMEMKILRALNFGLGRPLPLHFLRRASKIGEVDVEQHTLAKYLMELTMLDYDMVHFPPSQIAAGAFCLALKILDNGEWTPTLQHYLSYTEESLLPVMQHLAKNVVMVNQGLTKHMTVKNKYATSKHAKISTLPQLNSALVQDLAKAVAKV
Chain of Tyrosine-protein kinase Fes/Fps (Homo sapiens) (P07332 whole entry): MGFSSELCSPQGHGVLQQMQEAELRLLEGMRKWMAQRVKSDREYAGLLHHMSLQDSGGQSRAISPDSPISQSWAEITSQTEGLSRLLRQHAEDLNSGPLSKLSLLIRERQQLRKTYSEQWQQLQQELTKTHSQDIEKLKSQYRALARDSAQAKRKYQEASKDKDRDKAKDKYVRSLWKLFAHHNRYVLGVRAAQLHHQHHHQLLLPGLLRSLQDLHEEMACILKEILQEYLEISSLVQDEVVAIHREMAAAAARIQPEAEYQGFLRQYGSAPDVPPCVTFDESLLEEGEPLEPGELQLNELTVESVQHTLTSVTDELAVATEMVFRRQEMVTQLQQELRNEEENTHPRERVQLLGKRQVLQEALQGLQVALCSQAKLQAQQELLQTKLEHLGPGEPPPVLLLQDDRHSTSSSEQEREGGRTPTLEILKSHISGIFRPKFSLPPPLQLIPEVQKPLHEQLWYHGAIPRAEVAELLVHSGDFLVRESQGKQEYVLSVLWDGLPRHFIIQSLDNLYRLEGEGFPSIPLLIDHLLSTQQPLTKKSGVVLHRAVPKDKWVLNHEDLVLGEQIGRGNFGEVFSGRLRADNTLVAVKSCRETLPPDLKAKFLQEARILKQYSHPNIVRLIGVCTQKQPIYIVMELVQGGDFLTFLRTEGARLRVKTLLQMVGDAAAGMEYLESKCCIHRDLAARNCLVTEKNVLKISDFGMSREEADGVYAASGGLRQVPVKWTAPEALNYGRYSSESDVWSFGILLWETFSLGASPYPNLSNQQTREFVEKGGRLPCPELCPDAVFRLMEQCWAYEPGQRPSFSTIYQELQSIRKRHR

Take `COc1ccc(-c2nc3cc(-c4csc(C(=O)NCC(C)(C)C)c4)cnc3[nH]2)cc1`: the Activity in assay [1] was 98%; in assay [2], 94%; in assay [3], 90%; in assay [4], 89%; in assay [5], 86%; in assay [6], 85%.

`COc1ccc(-c2nc3cc(-c4csc(C(=O)NCCC(C)C)c4)cnc3[nH]2)cc1`: the Activity in assay [1] is 105%; in assay [2], 96%; in assay [3], 85%; in assay [4], 68%; in assay [5] it was 88%; in assay [6], 92%.

As to `COc1ccc(-c2nc3cc(-c4csc(C(=O)NCC(C)C)c4)cnc3[nH]2)cc1`, the Activity in assay [1] stood at 108%; in assay [2], 91%; in assay [3], 96%; in assay [4], 68%; in assay [5], 91%; in assay [6] it was 92%.
